# Article PMC11253539, “Structural and mechanistic insights into the transport of aristolochic acids and their active metabolites by human serum albumin” (The Journal of Biological Chemistry, 2024)
# “And” between values parts separate entries of the source, which are not always exact repeats. Equal values may be shown once. Read-outs that look alike come from different tables or passages of the source.
# How the values were obtained:
# HSA = test system: HSA; set-up: method as in PMID 16413837; conditions: numerous binding sites; cited from earlier work
# HSA (defatted HSAA3782) = molecular target: T1, HSA (defatted HSAA3782) (Homo sapiens, UniProt P02768); assay: Isothermal titration calorimetry of AA-HSA interactions; assay type: binding; conditions: for Ka (macroscopic association constant), Site 1 / Kd / Ka (macroscopic association constant), Site 2 / Ka (KA1), site 1 / Ka (KA2), site 2: two-site model; for Ka (KA1), site 1: site 1, 25 °C; for Ka (KA2), site 2: site 2, 25 °C; for ΔG°, Site 1 / ΔG°, Site 2: ΔG° = −RTlnKa, T = 298 K
# T1 construct: two human serum albumin (HSA) samples derived from pooled human plasma; purchased Sigma Aldrich A3782; host or cells: pooled human plasma
# T1 sequence (P02768 25-609): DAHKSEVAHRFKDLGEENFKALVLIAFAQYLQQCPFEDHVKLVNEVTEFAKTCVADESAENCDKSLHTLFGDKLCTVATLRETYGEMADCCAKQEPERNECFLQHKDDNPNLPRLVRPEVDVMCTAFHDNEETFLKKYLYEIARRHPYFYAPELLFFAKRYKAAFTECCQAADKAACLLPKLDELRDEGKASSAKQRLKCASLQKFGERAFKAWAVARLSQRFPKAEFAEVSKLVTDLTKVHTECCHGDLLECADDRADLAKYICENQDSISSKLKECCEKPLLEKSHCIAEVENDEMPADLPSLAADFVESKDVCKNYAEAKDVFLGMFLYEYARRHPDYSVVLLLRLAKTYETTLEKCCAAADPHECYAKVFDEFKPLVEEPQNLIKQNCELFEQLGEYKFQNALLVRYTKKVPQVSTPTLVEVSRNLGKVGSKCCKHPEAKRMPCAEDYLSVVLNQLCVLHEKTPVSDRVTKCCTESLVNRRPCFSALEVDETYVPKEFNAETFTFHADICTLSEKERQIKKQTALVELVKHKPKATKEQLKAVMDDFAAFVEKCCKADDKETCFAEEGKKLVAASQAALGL
# From the text: We have assessed the binding affinities of AA-I and AA-II for HSAA3782 by conducting a series of ITC experiments. […] An initial analysis of the AA-HSA binding isotherms using conventional fitting programs provides a reasonable estimate for the binding stoichiometry of two AA ligands per HSA molecule. […] Given the challenges associated with baseline assignments, we subsequently employed the NITPIC/SEDPHAT/GUSSI software suite ([60]) to ensure unambiguous analysis of the binding isotherms. Singular value decomposition yields baseline-corrected association data that are analyzed via a two-site binding model to derive macroscopic affinities for AA-HSA interactions in accordance with the following relation: A+B+B↔[AB]+B↔ABB where A represents the HSA macromolecule and B represents ligand AA-I or AA-II. This binding model implies that both sites are occupied with all possible ligation states coexisting in equilibrium.
# Binding parameters for the association of defatted HSAA3782 with AA-I and AA-II were determined calorimetrically employing a MicroCal VP-ITC instrument (Malvern Panalytical). Protein stock solutions (0.5–1.5 mM) were prepared by BME reduction to disrupt potential CyS34-CyS34 dimers and dialyzed against three 500 ml exchanges of 10 mM sodium phosphate buffer (pH 7.5). Aliquots of the respective AA ligand stocks were dissolved in protein dialysate and the final DMSO concentration adjusted to 2%. The HSA standard was prepared by diluting an appropriate aliquot in dialysate containing 2% DMSO to match the syringe solution contents. Each ITC experiment consists of thirty consecutive 10.0 μl injections during which the reaction heat is monitored and integrated over a 5-min interval under constant stirring conditions. The experimental protocol has been designed to ensure that there is at least a 15-fold excess of either AA-I or AA-II (75–200 μM) in the titration syringe relative to the initial HSA concentration (5–10 μM) in the reaction cell.
# Binding isotherms acquired at 25 °C were generated by recording the integrated reaction heats normalized for AA concentration versus ligand:protein ratio. […] We subsequently applied the NITPIC/SEDPHAT/GUSSI suite of software programs ([60], [88]) to ensure unbiased baseline assignments and peak integrations that facilitated selection of an appropriate binding model to characterize this protein-ligand system. The SEDPHAT program affords significant flexibility by allowing implicit and explicit uncertainty corrections that facilitate assessment of incompetent binding species in the protein and/or ligand. A nonlinear least squares analysis of the resultant profiles invoking a symmetric two-site binding model yields an optimal fit of the isotherms and requisite macroscopic parameters for AA-HSA interactions.
# [1] = molecular target: T2, HSA (HSAA3782 and HSAA8763 mercaptoalbumins) (Homo sapiens, UniProt P02768); assay: HSA Trp214 fluorescence quenching assay; assay type: binding
# T2 construct: two human serum albumin (HSA) samples derived from pooled human plasma; purchased Sigma Aldrich A3782; A8763; host or cells: pooled human plasma
# T2 sequence (P02768 25-609): as above
# From the text: Ligand-induced quenching of the intrinsic HSA fluorescence has been assessed by monitoring a single Trp^214 residue located within the IIA binding cavity to derive equilibrium dissociation constants (KD) for numerous endogenous and exogenous molecules including aristolochic acids ([51], [52]). […] Addressing this deficiency, we prepared mercaptoalbumins from HSAA3782 and HSAA8763, consisting of fatty acid-free and limited fatty acid-containing HSA, respectively. We subsequently employed these well-defined HSA samples to conduct comparative fluorescence quenching studies in the presence of AA-I, AA-II, and their respective metabolites while concurrently evaluating the impact of fatty acid content on relative binding affinities.
# Equilibrium fluorescence spectra of monomeric HSA samples were collected on an ISS PC1 photon counting spectrophotometer. An excitation wavelength of 295 nm was employed for HSAA3782 and HSAA8763 to selectively monitor tryptophan and avoid contributions of tyrosine residues. The excitation and emission slits were set to 1 nm and 2 nm, respectively. Prior to initiating the experiment, a stock solution of each AA compound (i.e., AA-I, AA-II, AL-I-NOH, AL-II-NOH, AL-I-NOAc. and AL-I-NOSO3) was prepared in DMSO by serial dilution to a 100-fold excess of their final concentration employed in the quenching experiments. HSA samples were diluted to 0.5, 1.0, and 2.5 μM in 10 mM KPi buffer (pH 7.5) and divided into 1 ml aliquots in Eppendorf tubes. A 10 μl aliquot of each AA compound was added to the HSA solutions to achieve a 0.2 to 50 μM concentration range in 1% DMSO. Each AA-HSA mixture was allowed to equilibrate at room temperature for at least 5 min, transferred to a 10 mm × 5 mm quartz cuvette, and emission spectrum recorded over the wavelength range of 310 to 460 nm employing a 2 nm step interval. Following each measurement, the quartz cuvette was cleaned, and the experiment repeated with the next AA:HSA ratio. […] Peak emission intensities at 340 nm were employed to construct fluorescence titration profiles for each AA compound.
# Fluorescence titration profiles of the HSA quenching assays were generated using SigmaPlot 13.0. When applicable, the mean and standard deviations obtained from 3 to 5 independent measurements are reported. […] Invoking the SigmaPlot software suite, we applied the following binding model ([87]): F=Ffree−(Ffree−Fbound)∗[…] where F represents the fluorescence signal observed at each ligand concentration (Lt) and Pt is the total protein concentration. Upon fitting, one obtains values of Ffree and Fbound that correspond to the fluorescence of unbound and fully bound HSA, respectively. The number of binding sites and their respective affinities has been determined for AA-I and AA-II interactions with HSA via application of isothermal titration calorimetry as described in the following section.
# [2] = ITC, Site 1, 10 mM NaPO4 pH 7.5, 25 °C
# [3] = ITC, Site 2, 10 mM NaPO4 pH 7.5, 25 °C
# [4] = fatty acid-containing HSA, mean ± SD of 3 to 5 measurements, 10 mM KPi pH 7.5, read-out: KDapp (HSAA8763)
# [5] = fatty acid-free HSA, mean ± SD of 3 to 5 measurements, 10 mM KPi pH 7.5, read-out: KDapp (HSAA3782)
Structure (SMILES),"Ka (macroscopic association constant), Site 1 (HSA (defatted HSAA3782); [2])","Ka (macroscopic association constant), Site 2 (HSA (defatted HSAA3782); [3])","Ka (KA1), site 1 (HSA (defatted HSAA3782); ITC) [M⁻¹]","Ka (KA2), site 2 (HSA (defatted HSAA3782); ITC) [M⁻¹]","ΔG°, Site 1 (HSA (defatted HSAA3782)) [kcal/mol]","ΔG°, Site 2 (HSA (defatted HSAA3782)) [kcal/mol]","Kd [1, 4] [nM]","Kd [1, 5] [nM]",other results
CCCCCCCCCCCCCC(=O)O [myristic acid],,,,,,,,,affinities for HSA binding sites (HSA): 10^4 to 10^7 M^−1
"O=C(O)c1cc2c(c3c1c([N+](=O)[O-])cc1ccccc13)OCO2 [AA-II, aristolochic acid II]",0.84 ± 0.07 10^6 M^−1,0.90 ± 0.10 10^6 M^−1,840000,900000,-8.10 ± 0.67,-8.12 ± 0.82,360 ± 30,630 ± 100,"association constant, first site (HSA (defatted HSAA3782); ITC, first of two sites, as given in abstract): 8.4 10^5 M^−1; association constant, second site (HSA (defatted HSAA3782); ITC, second of two sites, as given in abstract): 9.0 10^5 M^−1; Kd (HSA (defatted HSAA3782); ITC, Site 1, 10 mM NaPO4 pH 7.5, 25 °C, read-out: KD, Site 1): 1190 ± 190 nM; Kd (HSA (defatted HSAA3782); ITC, Site 2, 10 mM NaPO4 pH 7.5, 25 °C, read-out: KD, Site 2): 1110 ± 110 nM"
"COc1cccc2c1cc1c3c(cc4c(c32)OCO4)C(=O)N1O [AL-I-NOH, N-hydroxyaristolactam I]",,,,,,,740 ± 60,650 ± 60,
"COc1cccc2c1cc([N+](=O)[O-])c1c(C(=O)O)cc3c(c12)OCO3 [AA-I, aristolochic acid I]",1.5 10^6 M^−1 and 1.50 ± 0.18 10^6 M^−1,0.5 10^6 M^−1 and 0.54 ± 0.04 10^6 M^−1,1.5e+06,540000,-8.41 ± 1.00,-7.82 ± 0.58,,,"Kd (HSA (defatted HSAA3782); KD, Site 1, ITC, Site 1, 10 mM NaPO4 pH 7.5, 25 °C): 690 ± 80 nM; Kd (HSA (defatted HSAA3782); KD, Site 2, ITC, Site 2, 10 mM NaPO4 pH 7.5, 25 °C): 1870 ± 120 nM; Kd [1]: 430 ± 30 nM"
COc1cccc2c1cc1c3c(cc4c(c32)OCO4)C(=O)N1OC(C)=O [AL-I-NOAc],,,,,,,590 ± 70,670 ± 130,
